Tested on: multi-drug resistant P. aeruginosa
Assay: Susceptibility of the patient's positive bacterial culture
Format: cell-based
Conditions: positive bacterial culture of the patient before treatment
Text: The patient was a person with an 8 year history of chronic rhinosinusitis with daily and recurrent symptoms including facial congestion, facial pain and pressure, headaches and mucopurulent nasal drainage. The patient achieved limited success with previous treatments which included oral antibiotics, oral/nasal corticosteroids, antibiotic irrigation, saline rinses and suctioning. A positive bacterial culture indicated the presence of multi-drug resistant P. aeruginosa, susceptible only to colistimethate. Colistimethate was only commercially available as a solution for intravenous infusion, requiring hospitalization and constant monitoring for neurotoxicity and nephrotoxicity. In order to avoid the intravenous route of administration and the necessary hospitalization, a novel topical formulation was prescribed, consisting of: […]

colistimethate was tested, and the “susceptibility of cultured pathogen” value was “susceptible”.

— US20170007704A1, “CARRIER AND PHARMACEUTICAL COMPOSITIONS FOR INTRASINAL DELIVERY AND USES THEREOF” (priority 2015, published 2017)
